In PMC9025555, “Chiral Recognition R- and RS- of New Antifungal: Complexation/Solubilization/Dissolution Thermodynamics and Permeability Assay” (Pharmaceutics, 2022):
In brackets after ≈: the same amount, converted by molar mass.

Assay: Phase solubility study (shake-flask) in buffers with 2-HP-β-CD
Description: An excess amount of the substance was placed in the glass screw-capped vials with the solvent. The vials were stirred in an air thermostat for a certain period of time (a period of 3 days was estimated to be enough for reaching the equilibrium between the solid and the solvent). Then, the saturated solutions were kept in a thermostat in mild conditions no less than 12 h and thereafter centrifuged at a fixed temperature (Biofuge pico, Thermo Electron LED GmbH, Langenselbold, Germany) for 10 min at 12,000 rpm. […] The experimental results were reported as an average of at least three replicated experiments. Temperature uncertainty was ±0.1 K. The sensitivity of UV spectroscopic determinations was characterized by the values of the limit of detection (LOD)/limit of quantification (LOQ).

SMILES: O=C1S/C(=C\c2ccc(Cl)cc2)C(=O)N1CC(O)CN1CCN(CC(O)(Cn2cncn2)c2ccc(F)cc2F)CC1 (stereo not shown) [RS-186, (Z)-5-(4-chlorobenzylidene)-3-(3-(4-(2-(2,4-difluorophenyl)-2-hydroxy-3-(1H-1,2,4-triazol-1-yl)propyl)piperazin-1-yl)-2-hydroxypropyl)thiazolidine-2,4-dione]
- effect of CD on the solubility (enhancement) (acidic buffer, 298.15 K): 28 fold
- effect of CD on the solubility (enhancement) (buffer pH 7.4, 298.15 K): 148 fold
- Experimental solubility (S2) (pH 2.0, 298.15 K, 2-HP-β-CD 0 M, S2 10^3/M): 0.50 ± 0.01 10^3/M
- Experimental solubility (S2) (pH 2.0, 298.15 K, 2-HP-β-CD 0.01 M, S2 10^3/M): 3.37 ± 0.08 10^3/M
- Experimental solubility (S2) (pH 2.0, 298.15 K, 2-HP-β-CD 0.03 M, S2 10^3/M): 8.10 ± 0.22 10^3/M
- Experimental solubility (S2) (pH 2.0, 298.15 K, 2-HP-β-CD 0.04 M, S2 10^3/M): 10.90 ± 0.31 10^3/M
- Experimental solubility (S2) (pH 2.0, 298.15 K, 2-HP-β-CD 0.05 M, S2 10^3/M): 13.80 ± 0.40 10^3/M
- Experimental solubility (S2) (pH 2.0, 303.15 K, 2-HP-β-CD 0 M, S2 10^3/M): 0.54 ± 0.01 10^3/M
- Experimental solubility (S2) (pH 2.0, 303.15 K, 2-HP-β-CD 0.01 M, S2 10^3/M): 3.40 ± 0.04 10^3/M
- Experimental solubility (S2) (pH 2.0, 303.15 K, 2-HP-β-CD 0.03 M, S2 10^3/M): 8.37 ± 0.18 10^3/M
- Experimental solubility (S2) (pH 2.0, 303.15 K, 2-HP-β-CD 0.04 M, S2 10^3/M): 11.20 ± 0.19 10^3/M
- Experimental solubility (S2) (pH 2.0, 303.15 K, 2-HP-β-CD 0.05 M, S2 10^3/M): 14.20 ± 0.22 10^3/M
- Experimental solubility (S2) (pH 2.0, 310.15 K, 2-HP-β-CD 0 M, S2 10^3/M): 0.61 ± 0.02 10^3/M
- Experimental solubility (S2) (pH 2.0, 310.15 K, 2-HP-β-CD 0.01 M, S2 10^3/M): 3.64 ± 0.04 10^3/M
- Experimental solubility (S2) (pH 2.0, 310.15 K, 2-HP-β-CD 0.03 M, S2 10^3/M): 8.68 ± 0.19 10^3/M
- Experimental solubility (S2) (pH 2.0, 310.15 K, 2-HP-β-CD 0.04 M, S2 10^3/M): 11.79 ± 0.33 10^3/M
- Experimental solubility (S2) (pH 2.0, 310.15 K, 2-HP-β-CD 0.05 M, S2 10^3/M): 14.88 ± 0.24 10^3/M
- Experimental solubility (S2) (pH 2.0, 313.15 K, 2-HP-β-CD 0 M, S2 10^3/M): 0.69 ± 0.02 10^3/M
- Experimental solubility (S2) (pH 2.0, 313.15 K, 2-HP-β-CD 0.01 M, S2 10^3/M): 3.97 ± 0.03 10^3/M
- Experimental solubility (S2) (pH 2.0, 313.15 K, 2-HP-β-CD 0.03 M, S2 10^3/M): 9.30 ± 0.31 10^3/M
- Experimental solubility (S2) (pH 2.0, 313.15 K, 2-HP-β-CD 0.04 M, S2 10^3/M): 12.90 ± 0.33 10^3/M
- Experimental solubility (S2) (pH 2.0, 313.15 K, 2-HP-β-CD 0.05 M, S2 10^3/M): 15.90 ± 0.40 10^3/M
- order of the solubility (pH 2.0, compared with reported FCZ and L-173): (FCZ) > (RS-186 ≥ R-98) > (L-173)
- solubility in pure buffer solution (pH 2.0, pure buffer): 500 µM (≈ 310 µg/mL)
- solubility of RS-186 greater than R-98 (pH 7.4): 1.5 fold
- Experimental solubility (S2) (pH 7.4, 298.15 K, 2-HP-β-CD 0 M, S2 10^4/M): 0.27 ± 0.01 10^4/M
- Experimental solubility (S2) (pH 7.4, 298.15 K, 2-HP-β-CD 0.01 M, S2 10^4/M): 3.15 ± 0.02 10^4/M
- Experimental solubility (S2) (pH 7.4, 298.15 K, 2-HP-β-CD 0.03 M, S2 10^4/M): 20.00 ± 0.32 10^4/M
- Experimental solubility (S2) (pH 7.4, 298.15 K, 2-HP-β-CD 0.04 M, S2 10^4/M): 30.70 ± 0.51 10^4/M
- Experimental solubility (S2) (pH 7.4, 298.15 K, 2-HP-β-CD 0.05 M, S2 10^4/M): 40.20 ± 0.58 10^4/M
- Experimental solubility (S2) (pH 7.4, 303.15 K, 2-HP-β-CD 0 M, S2 10^4/M): 0.30 ± 0.01 10^4/M
- Experimental solubility (S2) (pH 7.4, 303.15 K, 2-HP-β-CD 0.01 M, S2 10^4/M): 2.74 ± 0.03 10^4/M
- Experimental solubility (S2) (pH 7.4, 303.15 K, 2-HP-β-CD 0.03 M, S2 10^4/M): 10.60 ± 0.33 10^4/M
- Experimental solubility (S2) (pH 7.4, 303.15 K, 2-HP-β-CD 0.04 M, S2 10^4/M): 15.60 ± 0.41 10^4/M
- Experimental solubility (S2) (pH 7.4, 303.15 K, 2-HP-β-CD 0.05 M, S2 10^4/M): 20.10 ± 0.21 10^4/M
- Experimental solubility (S2) (pH 7.4, 310.15 K, 2-HP-β-CD 0 M, S2 10^4/M): 0.35 ± 0.01 10^4/M
- Experimental solubility (S2) (pH 7.4, 310.15 K, 2-HP-β-CD 0.01 M, S2 10^4/M): 1.93 ± 0.03 10^4/M
